# Measured values taken from publication PMC4885489, “Prediction of Drug-Drug Interactions Arising from CYP3A induction Using a Physiologically Based Dynamic Model” (Drug Metabolism and Disposition, 2016).
# Where “and” joins values, the source holds several entries; their conditions need not be identical. Equal values may be shown once. Read-outs that look alike come from different tables or passages of the source.
# Columns and labels:
# [1] = cited from earlier work
# rCYP3A5 = details: cited from earlier work; for Km: read-out: rCYP3A5 Km
# [2] = cited from earlier work; remark: listed apart in the source
# [3] = cited from earlier work; remark: listed apart in the source
# CYP3A4 [4] = details: human, in vivo, po, cited from earlier work
# CYP3A [5] = details: mean of four human hepatocyte donors; three-parameter fit; Indmax = Emax + 1
# rCYP2C8 = test system: rCYP2C8; set-up: method as in ref (Cazali et al., 2003); details: ref (Cazali et al., 2003); cited from earlier work
# CYP3A [6] = details: mean of four human hepatocyte donors; three-parameter fit; Indmax = Emax + 1; remark: listed apart in the source
# CYP3A [7] = assay: in vitro; details: human, cryopreserved human hepatocytes, probe testosterone (6β-hydroxytestosterone formation)
# [8] = cited from earlier work; remark: listed apart in the source
# rCYP3A4 = details: ref (Cazali et al., 2003), (Huang et al., 2004), cited from earlier work
# [9] = Neutral; ref (Zhu et al., 2002); (Lombardo et al., 2000); (Henczi et al., 1995) and 4 others; cited from earlier work
# CYP3A [10] = assay: in vitro; details: human, cryopreserved human hepatocytes
# [11] = ref Meta-analysis (Bonneton et al., 1992); (de Groot et al., 1984); cited from earlier work
# HLM [12] = test system: HLM; set-up: method as in ref (Pearce et al., 2002); details: Other enzymes were combined; ref (Pearce et al., 2002); cited from earlier work
# rUGT2B7 = test system: rUGT2B7; set-up: method as in ref (Staines et al., 2004); details: ref (Staines et al., 2004); cited from earlier work
# HLM [13] = assay: Additional (unassigned) intrinsic clearance; details: Added to recover degree of auto-induction via enzymes other than CYP3A4
# rUGT1A4 = details: corrected for fumic & ISEF, ref Meta-analysis (Emoto et al., 2003), (Galetin et al., 2004) and 7 others incl. (Hyland et al., 2009), cited from earlier work
# CYP3A4 [14] = assay: Rifampicin-mediated clinical drug-drug interaction studies with CYP3A4 probe substrates; assay type: in vivo, human; details: for reduction in MDZ AUC, median: rifampicin, across clinical studies of Table 3; for fold induction: human, plasma, read-out: Geometric mean fold induction
# CYP3A4 [15] = details: read-out: CYP3A4 Ki; ref (Nielsen et al., 1999); (Ngui et al., 2000); (Guengerich et al., 1986); cited from earlier work
# CYP2D6 = test system: CYP2D6; set-up: method as in ref (Ching et al., 1995); (Broly et al., 1989); (Lalovic et al., 2004); details: ref (Ching et al., 1995); (Broly et al., 1989); (Lalovic et al., 2004); cited from earlier work
# rCYP1A2 = details: corrected for fumic & ISEF, ref (Von Moltke et al., 1999), cited from earlier work; for Km: read-out: rCYP1A2 Km
# CYP3A4 [16] = details: human, in vivo, cited from earlier work
# rCYP2C19 = details: M3, corrected for fumic & ISEF, ref (Von Moltke et al., 1999), cited from earlier work
# rCYP2C9 = details: corrected for fumic & ISEF, ref (Von Moltke et al., 1999), cited from earlier work; for Km: read-out: rCYP2C9 Km
# rCYP2D6 = details: corrected for fumic & ISEF, ref (Von Moltke et al., 1999), cited from earlier work; for Km: read-out: rCYP2D6 Km
# rCYP2J2 = details: corrected for fumic & ISEF, ref (Von Moltke et al., 1999), cited from earlier work; for Km: read-out: rCYP2J2 Km
# [17] = 1-hydroxylation, corrected for fumic & ISEF, ref Meta-analysis (Emoto et al., 2003), (Galetin et al., 2004) and 7 others
# [18] = 4-hydroxylation, corrected for fumic & ISEF, ref Meta-analysis (Emoto et al., 2003), (Galetin et al., 2004) and 7 others
compound,measurement,setting,value
C=C[C@@]1(O)CN2CC[C@H]1C[C@@H]2[C@@H](O)c1ccnc2ccc(OC)cc12 [3-OH Quinidine],CLR,[1]; in vivo,16.7 L/h
same,CLpo,[1]; in vivo,52.6 L/h
"Cc1nnc2n1-c1ccc(Cl)cc1C(c1ccccc1)=NC2 [Alprazolam, alprazolam]",Km,"rCYP3A5; 4-hydroxylation, corrected for fumic & ISEF, ref Meta-analysis (Hirota et al., 2001), (Galetin et al., 2004) (Williams et al., 2002)",211 µM
same,Km,"rCYP3A5; second pathway, printed 'oxylation', corrected for fumic & ISEF, ref Meta-analysis (Hirota et al., 2001), (Galetin et al., 2004) (Williams et al., 2002)",205 µM
same,Vss (Minimal PBPK),[2]; in vivo,0.99 L/kg
same,CLR,[1]; in vivo,0.678 L/h
same,ka,"[3]; ref (Smith et al., 1984), (Lin et al., 1988), (Kirkwood et al., 1991), (Amchin et al., 1998), (Greenblatt et al., 1983)",3.56 h⁻¹
same,AUC,CYP3A4 [4]; 1 mg,242 (31.3) ng/mL.h
same,AUCi,CYP3A4 [4],28.4 (23.9) ng/mL.h
"NC(=O)N1c2ccccc2C=Cc2ccccc21 [Carbamazepine, carbamazepine]",Km,"rCYP3A5; ref (Huang et al., 2004)",332 µM
same,rCYP3A5 Vmax,"rCYP3A5; ref (Huang et al., 2004)",1.44 pmol/min/pmol
same,mRNA Indmax,CYP3A [5],21.9 fold
same,Km,rCYP2C8,742 µM
same,rCYP2C8 Vmax,rCYP2C8,0.03 pmol/min/pmol
same,Activity Indmax,CYP3A [6],16.6 fold
same,EC50,CYP3A [7],59.1 µM
same,fu,"[8]; ref Meta-analysis (Grimsley et al., 1991), (Di Salle et al., 1974), (Rawlins et al., 1975) and 4 others",0.25
same,Km,rCYP3A4; read-out: rCYP3A4 Km,180 µM
same,rCYP3A4 Vmax,rCYP3A4,0.72 pmol/min/pmol
same,logP,[9],2.22
same,Vss (Minimal PBPK),"[2]; ref (Ramsay et al., 1990)",0.78 L/kg
same,CLR,"[1]; parent carbamazepine, ref (Kim et al., 2005)",0.0084 L/h
same,EC50,CYP3A [10],58.7 µM
same,B:P,[11],1.07
same,ka,"[3]; ref (Geradin et al., 1976), (Grimsley et al., 1991), (Olling et al., 1999), (Wong et al., 1983)",0.5 h⁻¹
same,fa,"[3]; ref (Tchaparian et al., 2008), (Faigle and Feldmann, 1975), (Levy et al., 1975)",0.84
same,Add HLM CLint,HLM [12],0.255 µL/min/mg
same,Km,rUGT2B7,25.4 µM
same,rUGT2B7 Vmax,rUGT2B7,4.18 pmol/min/pmol
same,Add rCYP CLint,HLM [13],0.010 µL/min/pmol
"NC(=O)N1c2ccccc2C2OC2c2ccccc21 (stereo not shown) [Carbamazepine-10,11-epoxide]",CLR,[1]; in vivo,0.14 L/h
same,CLpo,[1]; in vivo,6.07 L/h
"Cc1ncc2n1-c1ccc(Cl)cc1C(c1ccccc1F)=NC2 [Midazolam, midazolam]",rUGT1A4 Vmax,rUGT1A4,445 µL/min/mg
same,Km,rUGT1A4; read-out: rUGT1A4 Km,40.3 µM
same,rCYP3A5 Vmax,rCYP3A5; [17],19.7 µL/min/pmol
same,rCYP3A5 Vmax,rCYP3A5; [18],4.03 µL/min/pmol
same,Km,rCYP3A5; [17],4.16 µM
same,Km,rCYP3A5; [18],34.8 µM
same,Vss (Minimal PBPK),[2]; in vivo,1 L/kg
same,CLR,[1]; in vivo,0.085 L/h
same,Fe,[1]; in vivo,0.0033
same,ka,"[3]; ref (Allonen et al., 1981)",3 h⁻¹
same,AUC ratio,CYP3A4 [4]; 0.075 mg,2.3 fold
same,"reduction in MDZ AUC, median","CYP3A4 [14]; MDZ administered orally, listed as MDZ",17.5 fold and 18.1 fold
same,"reduction in MDZ AUC, median",CYP3A4 [14]; MDZ i.v. administration,2.0 fold
same,fold induction,CYP3A4 [14]; iv,1.99
same,fold induction,CYP3A4 [14]; po,18.1
same,"1/AUC ratio, CI of the observations",CYP3A4 [14]; meta-analysis of studies where midazolam was administered orally with rifampicin,5.4-60.4
"C=C[C@H]1C[N@@]2CC[C@H]1C[C@@H]2[C@@H](O)c1ccnc2ccc(OC)cc12 [Quinidine, quinidine]",Ki,CYP3A4 [15],40 µM
"CO[C@H]1/C=C/O[C@@]2(C)Oc3c(C)c(O)c4c(O)c(c(/C=N/N5CCN(C)CC5)c(O)c4c3C2=O)NC(=O)/C(C)=C\C=C\[C@H](C)[C@H](O)[C@@H](C)[C@@H](O)[C@@H](C)[C@H](OC(C)=O)[C@@H]1C [Rifampicin, rifampicin]",fu,"[8]; ref (Burman et al., 2001)",0.15
same,Vss (Minimal PBPK),"[2]; ref (Loos et al., 1985)",0.33 L/kg
same,CLiv,[1]; in vivo,7 L/h
same,CLR,[1]; ref Polk 2001,1.2 L/h
"Cc1nnc2n1-c1ccc(Cl)cc1C(c1ccccc1Cl)=NC2 [Triazolam, triazolam]",AUC,CYP3A4 [4]; 0.5 mg,14.8 (21.4) ng/mL.h
same,1/AUC Ratio,CYP3A4 [4],20.0
same,AUCi,CYP3A4 [4],0.74 (59.8) ng/mL.h
"Cc1ccc(-c2nc3ccc(C)cn3c2CC(=O)N(C)C)cc1 [Zolpidem, zolpidem]",rCYP1A2 Vmax,rCYP1A2; M3,7.99 µL/min/pmol
same,rCYP1A2 Vmax,rCYP1A2; M4,0.777 µL/min/pmol
same,Km,rCYP1A2; M3,38 µM
same,Km,rCYP1A2; M4,40 µM
same,AUC,CYP3A4 [16]; 5 mg,0.235 (70.4) mg/L.h
same,1/AUC Ratio,CYP3A4 [16],2.31
same,AUCi,CYP3A4 [16],0.102 (58.1) mg/L.h
same,rCYP2C19 Vmax,rCYP2C19,0.8 µL/min/pmol
same,Km,rCYP2C19; read-out: rCYP2C19 Km,133 µM
same,rCYP2C9 Vmax,rCYP2C9; M3,17.42 µL/min/pmol
same,rCYP2C9 Vmax,rCYP2C9; M4,0.888 µL/min/pmol
same,Km,rCYP2C9; M3,103 µM
same,Km,rCYP2C9; M4,81 µM
same,Vss (Minimal PBPK),[2]; in vivo,0.68 L/kg
same,CLR,[1]; in vivo,0.18 L/h
same,fe,[1]; in vivo,0.01
same,rCYP2D6 Vmax,rCYP2D6; M3,1.44 µL/min/pmol
same,rCYP2D6 Vmax,rCYP2D6; M4,4.68 µL/min/pmol
same,Km,rCYP2D6; M3,190 µM
same,Km,rCYP2D6; M4,214 µM
same,rCYP2J2 Vmax,rCYP2J2; M4,6.86 µL/min/pmol
same,Km,rCYP2J2; M3,340 µM
same,Km,rCYP2J2; M4,399 µM
same,ka,"[3]; ref (Olubodun et al., 2003), (Patat et al., 1994)",2.25 h⁻¹
same,AUC,CYP3A4 [4]; 20 mg,1110 (36.9) ng/mL.h
same,1/AUC Ratio,CYP3A4 [4],3.34
same,AUCi,CYP3A4 [4],332 (56.4) ng/mL.h
